Source: patent US20240043818A1, “Engineered Cells for Increased Collagen Production” (Northeastern University, priority 2020, published 2024)

What was measured:
[1] = test system: baboon liver myofibroblasts; settings: cited from earlier work
corneal fibroblasts = assay: Media additive screening (Phase 1) and full factorial DOE (Phase 2), collagen production by SirCol; assay type: cell-based; settings: Phase 1 screening
Procedure: Based on a weighted scoring (Table 13), the seven best additives were selected and were added to the fibroblast media separately in a Phase 1 screening study using concentrations presented in Table 14. […] For this study a three-level design was chosen in order to determine a maxima. This phase of the experiment determined which additives have a statistically significant effect on collagen production and what concentration of each additive has the highest positive impact.
The seven additives also allowed for minimizing the number of plates and maximizing the number of used wells. […] In phase 1 of testing 7 media additives were tested at 3 concentrations with a sample size of 4 for each condition. Additives and concentrations used were determined by the prior research described above. Collagen amount per well was quantified, but cell counts were not performed. Collagen produced per cell was estimated based on the number of cells expected per well. Some groups fell below the SirCol standard curve range of 1-50 ug. These values were represented as 1.00 ug/100 uL and were assigned the lowest rating for efficacy in the resulting trade study.
For the three additives that advanced the highest ranking of each additive was used as the DOE centerpoint. Due to a lack of available stock, ACE low was substituted for ACE medium.
In phase 2 the top performing media additives were fed into a full factorial DOE. The concentrations used were determined by a variety of factors including a trade study, remaining laboratory supplies, and finally the lower cost associated with a lower concentration in a near-tie situation. A near-tie situation was defined by the group as concentrations of the same chemical that scored within 1% total score. […] For acetaldehyde, due to a stock issue the low concentration at 0.2 mM was chosen. For the 100% concentration limit needed to complete construction of the full-factorial DOE plan, each of these values was doubled, which corresponds to the medium conditions from phase 1.

human dermal fibroblasts = settings: cited from earlier work
[2] = test system: cell types including bovine, mouse, and human; settings: cited from earlier work
fibroblast migration = settings: dose-dependent, 0.25 and 0.5 mM; cited from earlier work
any cell type = settings: cited from earlier work
collagen production = settings: cited from earlier work
[3] = test system: myofibroblasts and fibroblasts; settings: 50 mM; cited from earlier work
human lung fibroblasts = settings: 100 ng/mL; cited from earlier work
human chondrocytes = settings: cited from earlier work
rat liver M cells = settings: concentration in media as low as 1 ng/ml; cited from earlier work
[4] = added to the culture media in concentrations up to 300 μM

**Q.** Which results are given for `CC=O` [ACE, Acetaldehyde]?
**A.** levels of collagen produced [1, 4]: increase the levels of collagen; collagen production versus control, single additive (corneal fibroblasts): higher collagen production than the control; levels of collagen produced (human dermal fibroblasts; [4]): increase the levels of collagen

**Q.** Which results are given for `O=C1O[C@H]([C@@H](O)CO)C(O)=C1O` [ASC, Ascorbic acid]?
**A.** production of collagen [2]: beneficial; collagen production versus control, single additive (corneal fibroblasts): higher collagen production than the control

**Q.** With `N#CCCN` [BAPN, β-aminopropionitrile] as the molecule, how does the fibroblast migration (fibroblast migration) read?
**A.** inhibited fibroblast migration

**Q.** What about the “collagen production versus control, single additive” value (corneal fibroblasts) of the same molecule?
**A.** higher collagen production than the control

**Q.** What about the “adverse effects on cell viability, collagen synthesis, or non collagen protein synthesis” value (any cell type) of the same molecule?
**A.** No research with any cell type has shown adverse effects

**Q.** For `N[C@@H](CCC(=O)O)C(=O)O` [Glutamate], which “increase of collagen production from the control” value (human dermal fibroblasts; glutamate-supplemented media) is on record?
**A.** 400%

**Q.** Which collagen production ([1]; 5 mM added to media) does the source give for `CC(O)C(=O)O` (stereo not shown) [Lactate] here?
**A.** statistically significant increase

**Q.** What about the collagen production (human dermal fibroblasts; 40 mM) of the same molecule?
**A.** decrease collagen production

**Q.** For `O=C(O)[C@@H]1CCCN1` [Proline], which “maximum increase in collagen production compared to the control value” (human dermal fibroblasts; 5-10 mM in media) is on record?
**A.** 200%

**Q.** For `Cn1c(=O)c2c(ncn2C)n(C)c1=O` [caffeine], which “effect on collagen production” value (collagen production; concentrations in media as little as 1-5 mM) is on record?
**A.** negative effect

**Q.** With `CCO` [ethanol] as the molecule, how does the “effect on the level of collagen production” value [3] read?
**A.** no direct effect

**Q.** Which “maximum benefit for the production of collagen, % of the control” value (human dermal fibroblasts; at 250 μM) does the source give for `NC(=O)CC[C@H](N)C(=O)O` [glutamine] here?
**A.** ~300%

**Q.** What does the source list for `O=C(O)C1CCC=N1` (stereo not shown) [pyrroline-5-carboxylate]?
**A.** optimal concentration for collagen production (human dermal fibroblasts): 1 mM; time at which the effect on collagen production can be seen (human dermal fibroblasts): 6 h; maximum increase of collagen production, % of the control value (human dermal fibroblasts; optimal concentration of 1 mM): 260%

**Q.** For IGF-1: Insulin-like Growth Factor 1, which “maximum increase of collagen production from control” value (human lung fibroblasts) is on record?
**A.** 300%

**Q.** And the “correlation between level in media and production of collagen” value (human dermal fibroblasts; manipulation of rat serum applied to media)?
**A.** positive correlation

**Q.** With “IL-1p: Interleukin type 1p as printed, glycoprotein associated with immune response” as the molecule, how does the “lowest concentration needed for an observable, positive effect on collagen production” value (human chondrocytes) read?
**A.** 2.5 µM

**Q.** With TGF-β as the molecule, how does the “concentration for maximum efficacy” value (human dermal fibroblasts) read?
**A.** 12.5 ng/mL

**Q.** With “TGF-β1: Transforming Growth Factor Beta 1” as the molecule, how does the “collagen production versus control” value (rat liver M cells) read?
**A.** unquantified increase

B1: IL-10: Interleukin, glycoprotein associated with immune response (protein, UniProt P22301 19-178, looked up)
Interleukin-10: SPGQGTQSENSCTHFPGNLPNMLRDLRDAFSRVKTFFQMKDQLDNLLLKESLLEDFKGYLGCQALSEMIQFYLEEVMPQAENQDPDIKAHVNSLGENLKTLRLRLRRCHRFLPCENKSKAVEQVKNAFNKLQEKGIYKAMSEFDIFINYIEAYMTMKIRN
**Q.** With B1 as the molecule, how does the “effect on level of collagen production” value (collagen production) read?
**A.** reduce the level of collagen production

B2: IL-4: Interleukin, glycoprotein associated with immune response (protein, UniProt P05112 25-153, looked up)
Interleukin-4: HKCDITLQEIIKTLNSLTEQKTLCTELTVTDIFAASKNTTEKETFCRAATVLRQFYSHHEKDTRCLGATAQQFHRHKQLIRFLKRLDRNLWGLAGLNSCPVKEANQSTLENFLERLKTIMREKYSKCSS
**Q.** With B2 as the molecule, how does the “maximum positive effect on collagen production, increase from control” value (collagen production) read?
**A.** 250%
